Measurements taken from the supplement of paper PMC10307832.

Assays:
Experiment in all cases: relative viability (nuclei count vs DMSO), 5 days (fraction); higher = more cells survive
[1] = compound: CC(=O)c1c(C)c2cnc(Nc3ccc(N4CCNCC4)cn3)nc2n(C2CCCC2)c1=O [Palbociclib] + CC(=O)Nc1cccc(-n2c(=O)n(C3CC3)c(=O)c3c(Nc4ccc(I)cc4F)n(C)c(=O)c(C)c32)c1 [Trametinib] (partner 0.02 µM)
Summary of the method: (§1)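 Lung cancer cell lines, seeded in 1536-well plates, were treated the following day by pin tool with a single drug or with five library-drug doses (not always all listed) in √10 steps on top of a fixed anchor-drug dose. Cells were fixed and nuclei stained in one step after 5 days, and nuclei were counted. Relative viability is the nuclei count for treated wells divided by that for vehicle wells, reported as medians of duplicate plates.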

[2] = compound: CC(=O)c1c(C)c2cnc(Nc3ccc(N4CCNCC4)cn3)nc2n(C2CCCC2)c1=O [Palbociclib] + C[C@@H](Oc1cc(-c2cnn(C3CCNCC3)c2)cnc1N)c1c(Cl)ccc(F)c1Cl [Crizotinib] (partner 1 µM)
Summary of the method: as §1

[3] = compound: CC(=O)c1c(C)c2cnc(Nc3ccc(N4CCNCC4)cn3)nc2n(C2CCCC2)c1=O [Palbociclib] + Cc1cc(Nc2cc(N3CCN(C)CC3)nc(Sc3ccc(NC(=O)C4CC4)cc3)n2)n[nH]1 [Tozasertib] (partner 0.1 µM)
Summary of the method: as §1

[4] = compound: CC(=O)c1c(C)c2cnc(Nc3ccc(N4CCNCC4)cn3)nc2n(C2CCCC2)c1=O [Palbociclib] + NC(=O)Nc1cc(-c2cccc(F)c2)sc1C(=O)N[C@H]1CCCNC1 [AZD7762] (partner 0.2 µM)
Summary of the method: as §1

## 201T
[1]; first compound 0.01 µM
  relative viability: 0.733
[1]; first compound 0.03162 µM
  relative viability: 0.684
[1]; first compound 0.1 µM
  relative viability: 0.71
[1]; first compound 0.3162 µM
  relative viability: 0.692
[1]; first compound 1 µM
  relative viability: 0.609
[2]; first compound 0.01 µM
  relative viability: 1.01
[2]; first compound 0.03162 µM
  relative viability: 0.992
[2]; first compound 0.1 µM
  relative viability: 0.922
[2]; first compound 0.3162 µM
  relative viability: 0.93
[2]; first compound 1 µM
  relative viability: 0.806
[3]; first compound 0.01 µM
  relative viability: 0.984
[3]; first compound 0.03162 µM
  relative viability: 0.906
[3]; first compound 0.1 µM
  relative viability: 0.914
[3]; first compound 0.3162 µM
  relative viability: 0.797
[3]; first compound 1 µM
  relative viability: 0.614
[4]; first compound 0.01 µM
  relative viability: 0.573
[4]; first compound 0.03162 µM
  relative viability: 0.475
[4]; first compound 0.1 µM
  relative viability: 0.905
[4]; first compound 0.3162 µM
  relative viability: 0.751
[4]; first compound 1 µM
  relative viability: 0.633

## ABC-1
[2]; first compound 0.01 µM
  relative viability: 0.935
[2]; first compound 0.03162 µM
  relative viability: 1.16
[2]; first compound 0.1 µM
  relative viability: 0.93
[2]; first compound 0.3162 µM
  relative viability: 0.832
[2]; first compound 1 µM
  relative viability: 0.591
[3]; first compound 0.01 µM
  relative viability: 0.161
[3]; first compound 0.03162 µM
  relative viability: 0.184
[3]; first compound 0.1 µM
  relative viability: 0.18
[3]; first compound 0.3162 µM
  relative viability: 0.215
[3]; first compound 1 µM
  relative viability: 0.217
[4]; first compound 0.01 µM
  relative viability: 0.931
[4]; first compound 0.03162 µM
  relative viability: 0.614
[4]; first compound 0.1 µM
  relative viability: 0.727
[4]; first compound 0.3162 µM
  relative viability: 0.957
[4]; first compound 1 µM
  relative viability: 0.752

## NCI-H1993
[1]; first compound 0.01 µM
  relative viability: 0.564
[1]; first compound 0.03162 µM
  relative viability: 0.612
[1]; first compound 0.1 µM
  relative viability: 0.418
[1]; first compound 0.3162 µM
  relative viability: 0.332
[1]; first compound 1 µM
  relative viability: 0.514
[2]; first compound 0.01 µM
  relative viability: 0.806
[2]; first compound 0.03162 µM
  relative viability: 0.757
[2]; first compound 0.1 µM
  relative viability: 0.718
[2]; first compound 0.3162 µM
  relative viability: 0.617
[2]; first compound 1 µM
  relative viability: 0.625
[3]; first compound 0.01 µM
  relative viability: 0.612
[3]; first compound 0.03162 µM
  relative viability: 0.572
[3]; first compound 0.1 µM
  relative viability: 0.575
[3]; first compound 0.3162 µM
  relative viability: 0.507
[3]; first compound 1 µM
  relative viability: 0.509
[4]; first compound 0.01 µM
  relative viability: 0.748
[4]; first compound 0.03162 µM
  relative viability: 0.646
[4]; first compound 0.1 µM
  relative viability: 0.575
[4]; first compound 0.3162 µM
  relative viability: 0.632
[4]; first compound 1 µM
  relative viability: 0.528

## NCI-H2085
[1]; first compound 0.01 µM
  relative viability: 0.529
[1]; first compound 0.03162 µM
  relative viability: 0.516
[1]; first compound 0.1 µM
  relative viability: 0.588
[1]; first compound 0.3162 µM
  relative viability: 0.482
[1]; first compound 1 µM
  relative viability: 0.34
[2]; first compound 0.01 µM
  relative viability: 0.895
[2]; first compound 0.03162 µM
  relative viability: 0.823
[2]; first compound 0.1 µM
  relative viability: 0.513
[2]; first compound 0.3162 µM
  relative viability: 0.695
[2]; first compound 1 µM
  relative viability: 0.576
[3]; first compound 0.01 µM
  relative viability: 0.84
[3]; first compound 0.03162 µM
  relative viability: 0.701
[3]; first compound 0.1 µM
  relative viability: 0.689
[3]; first compound 0.3162 µM
  relative viability: 0.635
[3]; first compound 1 µM
  relative viability: 0.523
[4]; first compound 0.01 µM
  relative viability: 1.06
[4]; first compound 0.03162 µM
  relative viability: 0.912
[4]; first compound 0.1 µM
  relative viability: 0.942
[4]; first compound 0.3162 µM
  relative viability: 0.76
[4]; first compound 1 µM
  relative viability: 0.473

## COR-L 105
[1]; first compound 0.01 µM
  relative viability: 0.477
[1]; first compound 0.03162 µM
  relative viability: 0.435
[1]; first compound 0.1 µM
  relative viability: 0.36
[1]; first compound 0.3162 µM
  relative viability: 0.407
[1]; first compound 1 µM
  relative viability: 0.389
[2]; first compound 0.01 µM
  relative viability: 0.726
[2]; first compound 0.03162 µM
  relative viability: 0.555
[2]; first compound 0.1 µM
  relative viability: 0.451
[2]; first compound 0.3162 µM
  relative viability: 0.447
[2]; first compound 1 µM
  relative viability: 0.276
[3]; first compound 0.01 µM
  relative viability: 0.379
[3]; first compound 0.03162 µM
  relative viability: 0.335
[3]; first compound 0.1 µM
  relative viability: 0.341
[3]; first compound 0.3162 µM
  relative viability: 0.308
[3]; first compound 1 µM
  relative viability: 0.318

## SK-LU-1
[1]; first compound 0.01 µM
  relative viability: 0.516
[1]; first compound 0.03162 µM
  relative viability: 0.439
[1]; first compound 0.1 µM
  relative viability: 0.39
[1]; first compound 0.3162 µM
  relative viability: 0.411
[1]; first compound 1 µM
  relative viability: 0.317
[2]; first compound 0.01 µM
  relative viability: 0.908
[2]; first compound 0.03162 µM
  relative viability: 0.738
[2]; first compound 0.1 µM
  relative viability: 0.624
[2]; first compound 0.3162 µM
  relative viability: 0.67
[2]; first compound 1 µM
  relative viability: 0.471
[3]; first compound 0.01 µM
  relative viability: 0.334
[3]; first compound 0.03162 µM
  relative viability: 0.33
[3]; first compound 0.1 µM
  relative viability: 0.266
[3]; first compound 0.3162 µM
  relative viability: 0.251
[3]; first compound 1 µM
  relative viability: 0.228

## NCI-H2342
[1]; first compound 0.01 µM
  relative viability: 1.09
[1]; first compound 0.03162 µM
  relative viability: 0.825
[1]; first compound 0.1 µM
  relative viability: 0.695
[1]; first compound 0.3162 µM
  relative viability: 0.758
[1]; first compound 1 µM
  relative viability: 0.669
[3]; first compound 0.01 µM
  relative viability: 0.556
[3]; first compound 0.03162 µM
  relative viability: 0.4
[3]; first compound 0.1 µM
  relative viability: 0.493
[3]; first compound 0.3162 µM
  relative viability: 0.544
[3]; first compound 1 µM
  relative viability: 0.409
[4]; first compound 0.01 µM
  relative viability: 0.457
[4]; first compound 0.03162 µM
  relative viability: 0.467
[4]; first compound 0.1 µM
  relative viability: 0.414
[4]; first compound 0.3162 µM
  relative viability: 0.409
[4]; first compound 1 µM
  relative viability: 0.399

## PC-3 [JPC-3]
[1]; first compound 0.01 µM
  relative viability: 0.657
[1]; first compound 0.03162 µM
  relative viability: 0.634
[1]; first compound 0.1 µM
  relative viability: 0.534
[1]; first compound 0.3162 µM
  relative viability: 0.703
[1]; first compound 1 µM
  relative viability: 0.597
[2]; first compound 0.01 µM
  relative viability: 0.988
[2]; first compound 0.03162 µM
  relative viability: 1.04
[2]; first compound 0.1 µM
  relative viability: 0.86
[2]; first compound 0.3162 µM
  relative viability: 0.797
[2]; first compound 1 µM
  relative viability: 0.653
[3]; first compound 0.01 µM
  relative viability: 0.918
[3]; first compound 0.03162 µM
  relative viability: 0.778
[3]; first compound 0.1 µM
  relative viability: 0.823
[3]; first compound 0.3162 µM
  relative viability: 0.774
[3]; first compound 1 µM
  relative viability: 0.596
[4]; first compound 0.01 µM
  relative viability: 0.794
[4]; first compound 0.03162 µM
  relative viability: 0.814
[4]; first compound 0.1 µM
  relative viability: 0.619
[4]; first compound 0.3162 µM
  relative viability: 0.592
[4]; first compound 1 µM
  relative viability: 0.41
